Data reported in US7423009B2, “Method for treatment of kidney diseases” (Kowa Company, Ltd., priority 2002, dated 2008).

System: nephritis induced by anti-GBM antiserum in wild type mouse
Assay: Nephritis induced by anti-GBM antiserum in wild type mice: amount of albumin in urine
Format: in vivo
Settings: for amount of albumin in urine: urine collected 18 hours after final administration
Experimental: (§1) Anti-GBM antiserum was administered to the wild type mice to induce nephritis, the mice were classified into three groups and the first group was administered with a peptide having an amino acid sequence of SLIGRL which is a selective stimulant for PAR-2 while the second group was administered with prednisolone which has been used as a treating agent for nephritis. In each group, administration was conducted once daily for consecutive seven days. The third group was a group which was not treated with a drug (control group). Further, for comparison, another untreated group where no anti-GBM antiserum was administered was prepared as the fourth group (in each group, n=6).
Immediately after the final administration of the drug solution, urine was collected for 18 hours and the amount of albumin in urine was measured.
as §1, with “In the same manner, anti-GBM” for “Anti-GBM”, “ASKH95” for “a peptide having an amino acid sequence of SLIGRL”, “group)” for “group). Further, for comparison, another untreated group where no anti-GBM antiserum was administered was prepared as the fourth group”
Nephritis was induced by a single administration of […] having about 16-fold of titer of antibody in an amount of 0.4 ml per mouse into tail vein (Jpn. J. Pharmacol., 33, 1145-1154, 1983). With regard to the amount of albumin in urine used as an index for nephritis, the amount of albumin in urine collected for 18 hours using a metabolic cage (manufactured by Sugiyamagen) was determined using an ELISA kit manufactured by Exocel and expressed in terms of μg/18 hours/100 g body weight. The resulting data were analyzed by a Student t-test and evaluated.
(§2) Anti-GBM antiserum was administered to a wild type mouse and, immediately after that, 0.3 μmol/kg of SLIGRL which is a selective stimulant for PAR-2 dissolved in a phosphate buffer or 3 mg/kg of prednisolone suspended in 0.5% methyl cellulose solution was administered thereto once daily for consecutive seven days (in each group, n=6). SLIGRL was administered to tail vein with a dose of 1 ml/100 g body weight at the rate of 0.1 ml/second. Prednisolone was compulsorily administered per os with a dose of 1 ml/100 g body weight. As a control, a group which was not treated with a drug (control group) was set up. As from immediately after the final administration of the drug solution, urine was collected for 18 hours using a metabolic cage and the amount of albumin in urine was measured.
as §2, with “In the same manner as example 3, anti-GBM” for “Anti-GBM”, “10 mg/kg” for “0.3 μmol/kg”, “ASKH95” for “SLIGRL”, “measured. Incidentally, ASKH95 is synthesized according to the literature (J. Clin. Invest. 111, 35-41, 2003), and used.” for “measured.”

C[C@]12C=CC(=O)C=C1CC[C@@H]1[C@@H]2[C@@H](O)C[C@@]2(C)[C@H]1CC[C@]2(O)C(=O)CO [prednisolone]
amount of albumin in urine reduced to an extent of % of the control group (Example 3, prednisolone 3 mg/kg per os once daily for seven days, not a significant suppression): 52.7%
amount of albumin in urine (Example 3, prednisolone 3 mg/kg per os once daily for seven days, control group 3528.5±1238.6): 1670.6±579.4 μg/18 hours/100 g body weight
effect on amount of albumin in urine compared with control group (in words) (Example 4, prednisolone 3 mg/kg per os once daily for seven days): almost no effect
amount of albumin in urine (Example 4, prednisolone 3 mg/kg per os once daily for seven days, control group 81319.0±8884.3): 75692.1±12846.9 μg/18 hours/100 g body weight

SLIGRL
amount of albumin in urine (Example 3, SLIGRL 0.3 μmol/kg to tail vein once daily for seven days, control group 3528.5±1238.6): 104.2±54.0 μg/18 hours/100 g body weight
decrease of amount of albumin in urine (Example 3, SLIGRL 0.3 μmol/kg to tail vein once daily for seven days, versus control group, significant): 97.0%

2-furoyl-LIGKV-OH [ASKH95]
effect on amount of albumin in urine compared with control group (in words) (Example 4, ASKH95 10 mg/kg to tail vein once daily for seven days): decreased significantly
amount of albumin in urine (Example 4, ASKH95 10 mg/kg to tail vein once daily for seven days, control group 81319.0±8884.3): 34709.6±8703.3 μg/18 hours/100 g body weight
